Experiments:
[1] = test system: MDA-MB-231 cells; experiment: Cell spreading and F-actin visualization on fibronectin (phalloidin); assay type: cell-based, human; details: 5 μM, two hours
Excerpt: FIGS. 1A to 1E show a schematics of an exemplary drug screen for antivascular agent described herein, e.g., dehydro-alpha-lapachone (DAL) and effects of DAL on cell adhesion properties. […] Of the 50,000 compounds screened, 86 compounds were selected to test in the secondary assays. Only compounds that made MDA-MB-231 cells more rounded, with less spreading than control cells, and interfered with actin regulation were selected for further study. All these selected small molecules were further passed through a number of filtering toxicity assays to eliminate toxic compounds. […] The non-toxic compounds were then analyzed in a zebrafish model. […]
A cell-based readout system was used for compound selection. […] As a further test of toxicity, DAL was injected intraperitoneally at 100 mg/kg in SCID mice and signs of toxicity including cachexia, ruffled fur, diarrhea, anorexia, skin ulceration, and toxic death were monitored.
A screening strategy was developed to identify potential agents that target adhesion of endothelial cells or cancer cells to their substrate. […] The initial screening step quantified the number of cells remaining attached to their wells following incubation with each compound and subsequent washing steps. […] The agents that affect cell adhesion can be monitored through remodeling of actin filaments. […] Changes in actin assembly and cell shape after treatment with 12 compounds were determined. […]

[2] = test system: zebrafish caudal fin regenerating vessels; experiment: Caudal fin amputation, blood vessel regeneration; assay type: in vivo
Procedure: For the regeneration experiments, caudal fins of zebrafish were amputated at approximately the 50% proximal-distal level (21). The amputated fish were kept in individual 250-ml fish tanks, and at least five fish were used in each group. Staging for normal blood vessel regeneration was carried out at 25° C. with TG(fli1:EGFP)y1 fish, with the same fin ray and vessels of each fish was photographed at different time intervals during the course of the time-lapse study.
To examine whether DAL has a similar antivascular effect on neovasculature in adult zebrafish, neovascularization was induced by amputating the caudal fin at the ˜50% proximal-distal level and fin rays and vessels were imaged from each fish over time. In control zebrafish caudal fins, amputated blood vessels healed their ends by 24 h post-amputation and then reconnected arteries and veins through anastomosis, with blood flow resuming at wound sites by 48 h after amputation (FIG. 2B).

[3] = test system: Cdc42; experiment: Cdc42 activation pull-down assay (PAK-PBD) in HUVECs; assay type: cell-based, human
Procedure: Rac1 and cdc42 activities were measured with a Rac1 (BK035) activation assay biochem kit (Cytoskeleton) according to the manufacturer protocol. In brief, human umbilical vein endothelial cells (HUVECs) were bovine brain extract-starved for 12 hours in 1% FBS-EGM (Lonza) and pretreated with various concentrations of DAL for 30 minutes at 37° C. The HUVECs were then stimulated with VEGF at […] for 15 minutes at 37° C. After stimulation, the cells were immediately incubated on ice, washed twice with PBS, and lysed with lysis buffer. The lysates were pre-cleared and added with 15 μl of PAK-PBD beads for pull-down of activated Rac1 or cdc42. After rocking at 4° C. for 1 hour, the beads were washed once and boiled at 100° C. for 2 minutes. The protein lysates were then resolved in a 8-16% gradient gel (Invitrogen) and transferred to a PVDF membrane. Primary antibodies (anti-Rac1, 1:1000, cytoskeleton or anti-cdc42, 1:1000, cell signaling) were added to bind to the protein overnight at 4° C., followed by incubation with HRP-conjugated secondary antibodies. Protein activity was measured by the standard ECL method (Amersham).
Without wishing to be bound by theory, DAL brings about its antivascular effects by destabilizing cell adhesion through the actin cytoskeleton. […] Therefore, potential targets of DAL in signaling pathways involved in actin remodeling were evaluated. […]

[4] = target: recombinant purified IDO (Homo sapiens, UniProt P14902); details: cited (He et al., 2008); cited from earlier work
Sequence of recombinant purified IDO (P14902 whole entry): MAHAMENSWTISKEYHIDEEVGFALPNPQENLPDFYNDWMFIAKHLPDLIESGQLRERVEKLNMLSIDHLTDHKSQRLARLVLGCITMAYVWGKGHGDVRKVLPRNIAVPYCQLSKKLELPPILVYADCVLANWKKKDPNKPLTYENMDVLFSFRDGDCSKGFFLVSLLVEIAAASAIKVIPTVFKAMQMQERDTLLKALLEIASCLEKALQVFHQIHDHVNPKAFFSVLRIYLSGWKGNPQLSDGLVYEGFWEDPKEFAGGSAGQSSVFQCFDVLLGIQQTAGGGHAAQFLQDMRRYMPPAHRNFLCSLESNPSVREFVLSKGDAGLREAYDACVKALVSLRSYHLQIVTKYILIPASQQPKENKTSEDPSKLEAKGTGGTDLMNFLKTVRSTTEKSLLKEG

SMILES: CC1(C)C=CC2=C(O1)C(=O)c1ccccc1C2=O [DAL, dehydro-alpha-lapachone]
- cell spreading, size and shape on fibronectin-coated plates [1]: significantly smaller than control cells and had a rounded shape
- F-actin distribution ([1]; phalloidin): actin was accumulated close to the membrane
- anastomotic bridges at the amputation plane ([2]; 9 days after amputation): did not find such bridges
- anastomosis and plexus formation of regenerating vessels ([2]; caudal fin after amputation): defects in anastomosis and plexus formation
- Cdc42 activity [3]: no effect
- mode of IDO inhibition with respect to L-tryptophan [4]: non-competitive

Reference: patent US20140161720A1, “TREATMENT OF ANGIOGENIC- OR VASCULAR-ASSOCIATED DISEASES” (THE GENERAL HOSPITAL CORPORATION, priority 2011, published 2014)
